Results from patent US10610487B2, “Salts of active ingredients with polymeric counterions” (BASF SE, priority 2015, dated 2020).
Converted amounts (≈) assume the structure as drawn. Like-named read-outs stand apart in the source and are kept apart here.

Legend:
[1] = CD water, 100 mg haloperidol per 250 ml, hard gelatine capsule
physchem = details: thermodynamic from solid

| Compound | Release of haloperidol ([1]; 0 min) [%] | Release of haloperidol ([1]; 2 min) [%] | Release of haloperidol ([1]; 4 min) [%] | Release of haloperidol ([1]; 6 min) [%] | Release of haloperidol ([1]; 8 min) [%] | Release of haloperidol ([1]; 10 min) [%] | Release of haloperidol ([1]; 30 min) [%] | Release of haloperidol ([1]; 60 min) [%] | Release of haloperidol ([1]; 120 min) [%] | solubility thermodynamic at 72 h (physchem; simulated gastric fluid) [µg/mL] | solubility thermodynamic at 72 h (physchem; water) [µg/mL] |
| --- | --- | --- | --- | --- | --- | --- | --- | --- | --- | --- | --- |
| O=C(CCCN1CCC(O)(c2ccc(Cl)cc2)CC1)c1ccc(F)cc1 [Haloperidol, haloperidol] | 0.0 | 0.1 | 0.2 | 0.3 | 0.4 | 0.6 | 1.5 | 1.8 | 2.3 | 600 (≈ 1600 µM) | 2.6 (≈ 6.92 µM) |
| CN(C)C(=O)C(CCN1CCC(O)(c2ccc(Cl)cc2)CC1)(c1ccccc1)c1ccccc1 [Loperamide, loperamide] | – | – | – | – | – | – | – | – | – | – | 72.3 (≈ 152 µM) |
